Data published in patent US20200131669A1, “CYCLIC PEPTIDE COMPOUND HAVING HIGH MEMBRANE PERMEABILITY, AND LIBRARY CONTAINING SAME” (Chugai Seiyaku Kabushiki Kaisha, priority 2017, published 2020).
Starred links: 1 amine or outer side, 2 acyl side, 3 side chain; linkers in the order of their positions; H or OH if unused. Positions of bridges follow the written chain, without caps; N, C: chain ends. Non-standard residues stand in square brackets, D forms with d. Residues, ends and D or L forms follow the SMILES beside them. *: point of attachment. NMeAbu(3,3-F2-piperidino) = CN[C@@H](CCN1CCCC(F)(F)C1)C(=O)O; X13 = O=C([C@@H]1C[C@H](N2CCC(F)(F)CC2)CN1[*:1])[*:2]; X6 = CN([C@@H](CCN1CCC(F)(F)CC1)C(=O)[*:2])[*:1]; Phe(4-CF3) = N[C@@H](Cc1ccc(C(F)(F)F)cc1)C(=O)O; X15 = CN([C@H](CCN1CCOCC1)C(=O)[*:2])[*:1]; hPhe(3-Cl) = N[C@@H](CCc1cccc(Cl)c1)C(=O)O; Tyr(3-F) = N[C@@H](Cc1ccc(O)c(F)c1)C(=O)O; NMeW = CN[C@@H](Cc1c[nH]c2ccccc12)C(=O)O; NMehPhe = CN[C@@H](CCc1ccccc1)C(=O)O; Gly(N-(CH2)2OEt) = CCOCCNCC(=O)O; NMeF = CN[C@@H](Cc1ccccc1)C(=O)O; NMeI = CC[C@H](C)[C@H](NC)C(=O)O; 3Pal = N[C@@H](Cc1cccnc1)C(=O)O; Butyl(3-Me,3-OH) = CC(C)(O)CC*; NMeL = CN[C@@H](CC(C)C)C(=O)O; NMeV = CN[C@H](C(=O)O)C(C)C; NMeA = CN[C@@H](C)C(=O)O; Piperidide = C1CCN(*)CC1; dAbu = CC[C@@H](N)C(=O)O; CH2CMe2OH = CC(C)(O)C*; NBuGly = CCCCNCC(=O)O; NPrGly = CCCNCC(=O)O; Sar = CNCC(=O)O; tBu = CC(C)(C)*

tested on: not listed separately; test: Caco-2 membrane permeability, improved method as used in the following Examples (96-well, 20 to 24 h preincubation); type: in vitro ADME; settings: Caco-2, Caco-2 (cm/sec)
How it was run: (§1)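 Caco-2 monolayers were grown three weeks and preincubated 20–24 h at 37 °C with compound in DMEM+FaSSIF (1% DMSO) apically. The assay then used compound in FaSSIF/HBSS (1% DMSO, pH 6.0) apically and HBSS with 4% BSA (pH 7.4) basally. Basal samples were taken at 180 min for LC/MS, and Papp (cm/sec) was calculated.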

Row | Compound | Papp A→B
1 | CC(C)C[C@H]1C(=O)N[C@@H](COC(C)(C)C)C(=O)N(C)[C@@H](C(C)C)C(=O)N(C)[C@@H](C)C(=O)N[C@H](C(=O)N2CCCCC2)CC(=O)N[C@H](C)C(=O)N(C)[C@@H](Cc2ccccc2)C(=O)N[C@@H](Cc2ccc(C(F)(F)F)cc2)C(=O)N(C)[C@@H](CC(C)C)C(=O)N[C@@H]([C@@H](C)O)C(=O)N(C)CC(=O)N1C [pd130] ([dA][NMeF][Phe(4-CF3)][NMeL]T[Sar][NMeL]S(tBu)[NMeV][NMeA]D-Piperidide; lactam N-11) | 1.1 ×10⁻⁶ cm/s

same assay, conditions: human, Caco-2, Caco-2

Row | Compound | Papp A→B at 180 min
2 | CCCCN1CC(=O)N(C)[C@@H](Cc2ccccc2)C(=O)N[C@@H](CC(C)C)C(=O)N(C)[C@@H](CC(C)C)C(=O)N[C@@H]([C@@H](C)O)C(=O)N(C)CC(=O)N(C)[C@@H](Cc2ccccc2)C(=O)N(C)[C@@H](CCN2CCC(F)(F)CC2)C(=O)N[C@@H](CC(C)C)C(=O)N(C)[C@@H](C(C)C)C(=O)N[C@H](C(=O)N2CCCCC2)CC1=O [pd395] ([NBuGly][NMeF]L[NMeL]T[Sar][NMeF][X6]L[NMeV]D-Piperidide; lactam N-11) | 1.7 ×10⁻⁶ cm/s
3 | CCOCCN1CC(=O)N(C)[C@@H](Cc2ccccc2)C(=O)N(C)[C@@H](CC(C)C)C(=O)N[C@@H](COC(C)(C)C)C(=O)N(C)[C@@H](CC(C)C)C(=O)N[C@H](C(=O)N2CCCCC2)CC(=O)N(C)CC(=O)N(C)[C@@H](Cc2ccccc2)C(=O)N[C@@H](C(C)C)C(=O)N(C)[C@@H](CC(C)C)C(=O)N[C@@H]([C@@H](C)O)C1=O [pd418] ([Sar][NMeF]V[NMeL]T[Gly(N-(CH2)2OEt)][NMeF][NMeL]S(tBu)[NMeL]D-Piperidide; lactam N-11) | 1.5 ×10⁻⁶ cm/s
4 | CC(C)C[C@@H]1NC(=O)[C@H](Cc2ccccc2)N(C)C(=O)[C@@H](C(C)C)NC(=O)C[C@@H](C(=O)N2CCCCC2)NC(=O)[C@H](C(C)C)N(C)C(=O)[C@H](Cc2ccccc2)N(C)C(=O)[C@H](COC(C)(C)C)NC(=O)[C@H](CCN2CCCC(F)(F)C2)N(C)C(=O)CN(C)C(=O)[C@H]([C@@H](C)O)NC(=O)[C@H](CC(C)C)N(C)C1=O [pd387] ([dV][NMeF]L[NMeL]T[Sar][NMeAbu(3,3-F2-piperidino)]S(tBu)[NMeF][NMeV]D-Piperidide; lactam N-11) | 3.5 ×10⁻⁶ cm/s
5 | CC(C)C[C@H]1C(=O)N[C@H](C(=O)N2CCCCC2)CC(=O)N(C)[C@@H](C)C(=O)N[C@@H](CCc2cccc(Cl)c2)C(=O)N(C)[C@@H](CC(C)C)C(=O)N(C)[C@@H](CC(C)C)C(=O)N[C@@H](C)C(=O)N(C)[C@@H](Cc2ccccc2)C(=O)N(C)[C@@H](C(C)C)C(=O)N[C@@H]([C@@H](C)O)C(=O)N(C)CC(=O)N1C [pd356] ([NMeA][hPhe(3-Cl)][NMeL][NMeL]A[NMeF][NMeV]T[Sar][NMeL]D-Piperidide; lactam N-11) | 1.2 ×10⁻⁶ cm/s
6 | CC(C)C[C@@H]1NC(=O)[C@H](C)N(C)C(=O)C[C@@H](C(=O)N2CCCCC2)NC(=O)[C@H](CC(C)C)N(C)C(=O)CN(C)C(=O)[C@H]([C@@H](C)O)NC(=O)[C@H](CC(C)C)N(C)C(=O)[C@H](CCc2ccccc2)N(C)C(=O)[C@H](CC(C)C)NC(=O)[C@H](Cc2ccccc2)N(C)C(=O)[C@H](CC(C)C)N(C)C1=O [pd323] ([NMeA]L[NMeL][NMeF]L[NMehPhe][NMeL]T[Sar][NMeL]D-Piperidide; lactam N-11) | 2.3 ×10⁻⁶ cm/s
7 | CC(C)C[C@@H]1NC(=O)[C@H](Cc2ccccc2)N(C)C(=O)[C@H](CC(C)C)N(C)C(=O)[C@H](COCCC(C)(C)O)NC(=O)[C@H](C)N(C)C(=O)C[C@@H](C(=O)N2CCCCC2)NC(=O)[C@H](CC(C)C)N(C)C(=O)CN(C)C(=O)[C@H]([C@@H](C)O)NC(=O)[C@H](CC(C)C)N(C)C(=O)[C@H](CCc2ccccc2)N(C)C1=O [pd436] ([NMeA]S(Butyl(3-Me,3-OH))[NMeL][NMeF]L[NMehPhe][NMeL]T[Sar][NMeL]D-Piperidide; lactam N-11) | 1.3 ×10⁻⁶ cm/s
8 | CCCCN1CC(=O)N(C)[C@H](CCN2CCOCC2)C(=O)N[C@H](C(=O)N2CCCCC2)CC(=O)N(C)[C@@H](C)C(=O)N[C@@H](CC(C)C)C(=O)N(C)[C@@H](CC(C)C)C(=O)N(C)[C@@H](Cc2ccccc2)C(=O)N[C@@H](CC(C)C)C(=O)N(C)[C@@H](Cc2ccccc2)C(=O)N(C)[C@@H](CC(C)C)C(=O)N[C@@H]([C@@H](C)O)C1=O [pd454] ([NMeA]L[NMeL][NMeF]L[NMeF][NMeL]T[NBuGly][X15]D-Piperidide; lactam N-11) | 1.2 ×10⁻⁶ cm/s
9 | CCCN1CC(=O)N(C)[C@@H](CC(C)C)C(=O)N[C@@H](COCC(C)(C)O)C(=O)N(C)[C@@H](Cc2ccccc2)C(=O)N(C)[C@@H](CC(C)C)C(=O)N[C@H](C(=O)N2CCCCC2)CC(=O)N[C@H](C(C)C)C(=O)N(C)[C@@H](Cc2ccccc2)C(=O)N[C@@H](CC(C)C)C(=O)N(C)[C@@H](CC(C)C)C(=O)N[C@@H]([C@@H](C)O)C1=O [pd432] ([dV][NMeF]L[NMeL]T[NPrGly][NMeL]S(CH2CMe2OH)[NMeF][NMeL]D-Piperidide; lactam N-11) | 1.5 ×10⁻⁶ cm/s

same assay, conditions: human, Caco-2, Caco-2 (cm/sec)

Row | Compound | Papp A→B at 180 min
10 | CC[C@H](C)[C@H]1C(=O)N[C@@H](Cc2ccc(O)cc2)C(=O)N(C)CC(=O)N(C)[C@@H](CC(C)C)C(=O)N[C@H](C(=O)N2CCCCC2)CC(=O)N(C)[C@@H](C)C(=O)N[C@@H](C(C)C)C(=O)N(C)[C@@H](CC(C)C)C(=O)N(C)[C@@H](CC(C)C)C(=O)N[C@@H](C)C(=O)N(C)[C@@H](Cc2ccccc2)C(=O)N1C [pd126] ([NMeA]V[NMeL][NMeL]A[NMeF][NMeI]Y[Sar][NMeL]D-Piperidide; lactam N-11) | 0.42 ×10⁻⁶ cm/s
11 | CC(C)C[C@H]1C(=O)N[C@@H]([C@@H](C)O)C(=O)N2CCC[C@H]2C(=O)N(C)[C@@H](C)C(=O)N[C@@H](Cc2ccc(C(F)(F)F)cc2)C(=O)N(C)[C@@H](CC(C)C)C(=O)N(C)[C@@H](CC(C)C)C(=O)N[C@H](C(=O)N2CCCCC2)CC(=O)N1C [pd136] ([NMeL]TP[NMeA][Phe(4-CF3)][NMeL][NMeL]D-Piperidide; lactam N-8) | 1.6 ×10⁻⁶ cm/s
12 | CC[C@H](C)[C@@H]1NC(=O)[C@H](CC(C)C)N(C)C(=O)CN(C)C(=O)C[C@@H](C(=O)N2CCCCC2)NC(=O)[C@H](C)N(C)C(=O)[C@H](COC(C)(C)C)NC(=O)[C@H](CC(C)C)N(C)C(=O)[C@H](CC(C)C)N(C)C(=O)CN(C)C(=O)[C@H](Cc2c[nH]c3ccccc23)NC(=O)[C@H](CC(C)C)N(C)C1=O [pd103] ([Sar][NMeL]I[NMeL]W[Sar][NMeL][NMeL]S(tBu)[NMeA]D-Piperidide; lactam N-11) | 0.093 ×10⁻⁶ cm/s
13 | CC[C@H](C)[C@H]1C(=O)N[C@@H]([C@@H](C)O)C(=O)N(C)CC(=O)N(C)[C@@H](CC(C)C)C(=O)N[C@H](C(=O)N2CCCCC2)CC(=O)N(C)[C@@H](CC(C)C)C(=O)N[C@@H](CC(C)C)C(=O)N(C)[C@@H](CC(C)C)C(=O)N(C)[C@@H](Cc2c[nH]c3ccccc23)C(=O)N[C@@H](CC(C)C)C(=O)N(C)[C@@H](Cc2ccccc2)C(=O)N1C [pd111] ([NMeL]L[NMeL][NMeW]L[NMeF][NMeI]T[Sar][NMeL]D-Piperidide; lactam N-11) | 0.16 ×10⁻⁶ cm/s
14 | CC(C)C[C@H]1NC(=O)C[C@@H](C(=O)N2CCCCC2)NC(=O)[C@H](C)N(C)C(=O)[C@H](CC(C)C)N(C)C(=O)[C@H](COC(C)(C)C)NC(=O)[C@H](CC(C)C)N(C)C(=O)CN(C)C(=O)[C@H]([C@@H](C)O)NC(=O)[C@H](CC(C)C)N(C)C(=O)[C@H](Cc2ccc(O)c(F)c2)NC(=O)[C@H](Cc2ccccc2)N(C)C1=O [pd118] ([dL][NMeF][Tyr(3-F)][NMeL]T[Sar][NMeL]S(tBu)[NMeL][NMeA]D-Piperidide; lactam N-11) | 0.2 ×10⁻⁶ cm/s
15 | CC(C)C[C@@H]1NC(=O)[C@H](Cc2ccccc2)N(C)C(=O)[C@H](C)N(C)C(=O)C[C@@H](C(=O)N2CCCCC2)NC(=O)[C@H](C(C)C)N(C)C(=O)[C@H](Cc2ccccc2)N(C)C(=O)[C@H](COC(C)(C)C)NC(=O)[C@H](CC(C)C)N(C)C(=O)CN(C)C(=O)[C@H](Cc2cccnc2)NC(=O)[C@H](CC(C)C)N(C)C1=O [pd197] ([NMeA][NMeF]L[NMeL][3Pal][Sar][NMeL]S(tBu)[NMeF][NMeV]D-Piperidide; lactam N-11) | 3 ×10⁻⁶ cm/s

tested on: Caco-2 cells; test: as above; type: in vitro ADME; settings: human, Caco-2, 180 min
How it was run: as §1

Row | Compound | Caco-2
16 | CC[C@H](C)[C@H]1C(=O)N[C@@H]([C@@H](C)O)C(=O)N(C)CC(=O)N(C)[C@@H](CC(C)C)C(=O)N[C@H](C(=O)N2CCCCC2)CC(=O)N(C)[C@@H](C)C(=O)NC(COc2cccc(Cl)c2)C(=O)N(C)[C@@H](CC(C)C)C(=O)N(C)[C@@H](Cc2ccccc2)C(=O)N[C@@H](C)C(=O)N(C)[C@@H](Cc2ccccc2)C(=O)N1C (stereo partly drawn) [pd188] | 1.3e-06 cm/s
17 | CC[C@H]1NC(=O)C[C@@H](C(=O)N2CCCCC2)NC(=O)[C@H](CC(C)C)N(C)C(=O)[C@H](Cc2ccccc2)NC(=O)[C@@H]2C[C@H](N3CCC(F)(F)CC3)CN2C(=O)[C@H]([C@@H](C)O)NC(=O)[C@H](CC(C)C)N(C)C(=O)[C@H](CC(C)C)NC(=O)[C@H](CC(C)C)N(C)C(=O)[C@H](COC(C)(C)C)NC(=O)[C@H](CC(C)C)N(C)C1=O [pd462] ([dAbu][NMeL]S(tBu)[NMeL]L[NMeL]T[X13]F[NMeL]D-Piperidide; lactam N-11) | 1.1e-06 cm/s
18 | CC[C@H](C)[C@H]1C(=O)N[C@@H]([C@@H](C)O)C(=O)N(C)CC(=O)N(C)[C@@H](C)C(=O)N[C@H](C(=O)N2CCCCC2)CC(=O)N(C)[C@@H](C)C(=O)N[C@@H](C(C)C)C(=O)N(C)[C@@H](CC(C)C)C(=O)N(C)[C@@H](Cc2ccccc2)C(=O)NC(COc2cccc(Cl)c2)C(=O)N(C)[C@@H](Cc2ccccc2)C(=O)N1C (stereo partly drawn) [pd186] | 1.8e-06 cm/s
